Reference: PubChem BioAssay (NCI)
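48-hour exposure; five concentrations; linearly interpolated endpoints. Here, GI50 denotes the concentration required for 50% inhibition of growth. TGI is the concentration that stops growth completely.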

How the values were obtained:
Assay in all cases: DTP human tumour cell line panel, 48 h
[1] = tested on: KM12 colon
[2] = tested on: NCI/ADR-RES ovarian
[3] = tested on: SK-MEL-28 melanoma
[4] = tested on: OVCAR-5 ovarian
[5] = tested on: SN12C renal
[6] = tested on: CAKI-1 renal
[7] = tested on: HL-60(TB) leukemia
[8] = tested on: HOP-92 NSCLC
[9] = tested on: DU-145 prostate
[10] = tested on: CCRF-CEM leukemia
[11] = tested on: T-47D breast
[12] = tested on: BT-549 breast
[13] = tested on: HCT-15 colon
[14] = tested on: OVCAR-4 ovarian
[15] = tested on: MDA-MB-231 breast
[16] = tested on: MDA-MB-435
[17] = tested on: SF-295 CNS
[18] = tested on: SK-MEL-5 melanoma
[19] = tested on: HCT-116 colon
[20] = tested on: SF-539 CNS
[21] = tested on: UACC-257 melanoma
[22] = tested on: NCI-H226 lung
[23] = tested on: A549 NSCLC
[24] = tested on: SK-MEL-2 melanoma
[25] = tested on: UO-31 renal
[26] = tested on: SNB-75 CNS
[27] = tested on: SF-268 CNS
[28] = tested on: MOLT-4 leukemia

For `CN(C)c1cc[n+](/C(NS(=O)(=O)c2cc(C(=O)Nc3ccc(Cl)cc3)c(Cl)cc2[S-])=C(\C#N)C(=O)c2ccccc2)cc1`, the GI50 [1] was 40.6 µM, the TGI [1] was over 100 µM and the GI50 [2] was over 100 µM. For the same molecule, the TGI [2] was over 100 µM, the GI50 [3] was 30.8 µM and the TGI [3] was over 100 µM. The GI50 [4] was 22.7 µM, the TGI [4] was 53 µM and the GI50 [5] was 79.8 µM. It also gave a TGI [5] of over 100 µM, a GI50 [6] of 18.7 µM and a TGI [6] of 43 µM. It also gave a GI50 [7] of over 100 µM, a TGI [7] of over 100 µM and a GI50 [8] of 13.9 µM. The TGI [8] was 36.3 µM, the GI50 [9] was 17.2 µM and the TGI [9] was 82.6 µM. The GI50 [10] was 33.1 µM, the TGI [10] was over 100 µM and the GI50 [11] was 9.64 µM. For the same molecule, the TGI [11] was 77.7 µM, the GI50 [12] was 25.4 µM and the TGI [12] was 82.8 µM. The GI50 [13] was 17.4 µM, the TGI [13] was 65.1 µM and the GI50 [14] was 18 µM. It also gave a TGI [14] of 38.8 µM, a GI50 [15] of 16.7 µM and a TGI [15] of 48.5 µM. For the same molecule, the GI50 [16] was 36.5 µM, the TGI [16] was over 100 µM and the GI50 [17] was 27.1 µM. It also gave a TGI [17] of 68.7 µM, a GI50 [18] of 21.3 µM and a TGI [18] of 81.8 µM. The GI50 [19] was 14.9 µM, the TGI [19] was 34.3 µM and the GI50 [20] was 11.9 µM. For the same molecule, the TGI [20] was 24.8 µM, the GI50 [21] was 90.2 µM and the TGI [21] was over 100 µM. It also gave a GI50 [22] of 21.6 µM, a TGI [22] of 49.3 µM and a GI50 [23] of 41.5 µM. It also gave a TGI [23] of over 100 µM, a GI50 [24] of 85 µM and a TGI [24] of over 100 µM. It also gave a GI50 [25] of 23.8 µM, a TGI [25] of 54.7 µM and a GI50 [26] of 31.1 µM. It also gave a TGI [26] of over 100 µM, a GI50 [27] of 40.6 µM and a TGI [27] of over 100 µM. The GI50 [28] was 26.8 µM and the TGI [28] was over 100 µM.
